Data published in patent publication US20250281452A1, “CHIRAL ARYL PROPIONIC ACID DERIVATIVE AND PHARMACEUTICAL COMPOSITION THEREOF, AND USE” (SHIJIAZHUANG DISCOVERY MEDICINE TECHNOLOGY CO., LTD, priority 2022, published 2025).

Legend:
HFLS-RA cells = assay: Effect on HFLS-RA cell proliferation activity (CCK-8); format: cell-based, human; settings: TNF-α 10 ng/mL induced HFLS-RA cells, 72 h after treatment, x ± s
Experimental: Co-incubation: HFLS-RA cells in a logarithmic growth phase were inoculated in a 96-well culture plate at a density of 3×10^4 cells/ml with an inoculation volume of each well being 100 μL, and cultured for 24 h in a 37° C. and 5% CO2 incubator (the cell adhesion convergence degree reached about 25%) after inoculation, and then a proper amount of sample solutions was added according to the grouping and final concentrations of samples, with 3 duplicated wells set in each group. Before sampling (0 h), group 1 in blank control group was subjected to CCK-8 detection, and the rest groups were cultured for 72 h in an incubator and then subjected to CCK-8 detection.
Detection and calculation: the culture solution was discarded, and 100 μL of culture medium containing a 10% CCK-8 solution was added into each well and incubated for 2 h at 37° C. The light absorption value (OD value) was measured at 450 nm using a microplate reader, and the cell proliferation rate was calculated according to the following formula.
cell proliferation rate=[OD(72 h)−OD(0 h)]/OD(0 h)×100%, Calculation formula
where, OD(0 h) represents the OD value at 0 h, and […].

IL-6 in HFLS-RA cells = assay: Effect on HFLS-RA cytokine secretion, IL-6 (ELISA); format: cell-based, human; parameters: unit not given here; settings: supernatant content, TNF-α 10 ng/mL, test sample 100 µg/mL, 48 h culture, x ± s
Experimental: (§1) The experiment was divided into a blank control group (containing no test samples or TNF-α), a TNF-α group (the final concentration of TNF-α for cell incubation was 10 ng/mL), test sample groups (8 groups in total, including DSC4801 group, DSC4807 group, DSC4810 group, DSC4813 group, DSC4821 group and DSC4826 group as well as control 1 group, control 3 group, the final concentrations of test samples for cell incubation and of TNT-α were 100 µg/mL and 10 ng/mL, respectively).
(§2) HFLS-RA cells in a logarithmic growth phase were inoculated in a 6-well culture plate at a density of 5×10^4 cell/ml with an inoculation volume of each well being 200 μL, and cultured for 2 h in a 37° C. and 5% CO2 incubator after inoculation, and then a proper amount of sample solutions was added according to the grouping and the final concentrations of samples, with 3 duplicated wells set in each group. Cell supernatant was collected after further culture of 48 h, and the contents of IL-6 and IL-8 in the supernatant were detected using an ELISA kit.

IL-8 in HFLS-RA cells = assay: Effect on HFLS-RA cytokine secretion, IL-8 (ELISA); format: cell-based, human; parameters: unit not given here; settings: supernatant content, TNF-α 10 ng/mL, test sample 100 µg/mL, 48 h culture, x ± s
Experimental: as §1, §2

[1] = after oral administration; cited from earlier work
[2] = cited from earlier work
[3] = single local administration of 1% loxoprofen (100 mg), in 12 hours; cited from earlier work
[4] = Joint tissue distribution after oral gavage; format: in vivo; settings: SD rats, ankle joint tissue at 0.5, 1, 2 h, trans-OH metabolite detected by LC-MS/MS, compared with control 1 and control 2, P<0.001 (FIG. 1)
Experimental: 36 healthy male SD rats with a body weight of 200±20 g per rat were fed under conditions of a room temperature of 20-26° C., a humidity of 40%-70% and a light and dark cycle of 12 h/12 h, the rats were fed at liberty in the process of feeding. After adaptive feeding for 3 days, the SD rats were randomly divided into 4 groups (A/B/C/D groups), with 9 rats per group, each group was further randomly divided into 3 time groups, with 3 rats per time group. A suspension (the test samples were suspended with 1% MS, respectively) of the test sample was given to each group via oral gavage, wherein group A was administrated with 3 mg/kg of DSC4813, group B was administrated with 2.94 mg/kg of DSC4821, group C was administrated with 2.47 mg/kg of control 1, and group D was administrated with 2 mg/kg of control 2 (loxoprofen). 3 rats were anesthetized and euthanized in each group at 0.5 h, 1 h and 2 h, respectively after administration. The left and right ankle joints of hind legs were dissected, and the skin at the joints was peeled off. […] To-be-detected substances were detected by LC-MS/MS (compound trans-OH metabolite was detected for groups A/B/C, loxoprofen and all isomers whose carbonyl was reduced to OH for group D, and the results of group D were a sum of concentrations of loxoprofen and all isomers whose carbonyl was reduced to OH).

Row | Structure (SMILES) | Cell proliferation rate (HFLS-RA cells) [%] | also measured
1 | CCCC(=O)O[C@H]1CCC[C@@H]1Cc1ccc([C@H](C)C(=O)O)cc1 [Control 1, reference compound] | 39.33 ± 3.46 | IL-6 (IL-6 in HFLS-RA cells): 67.45 ± 2.68; IL-8 (IL-8 in HFLS-RA cells): 131.21 ± 6.88
2 | CC(C(=O)O)c1ccc(CC2CCCC2=O)cc1 (stereo not drawn) [Control 2, loxoprofen, reference compound] | 48.25 ± 3.21 | –
3 | CC(C(=O)O)c1ccc(CC2CCCC2=O)cc1 (stereo not drawn) [Control 2, loxoprofen] | – | Time until plasma concentration reaches peak [1]: 30 to 50 min; Plasma protein binding rate [2]: 97%; Dose transferred to a body [3]: 10%
4 | CCN(CC)CCOC(=O)[C@@H](C)c1ccc(C[C@H]2CCC[C@@H]2O)cc1 [DSC4801] | 31.18 ± 1.82 | IL-6 (IL-6 in HFLS-RA cells): 46.26 ± 0.35; IL-8 (IL-8 in HFLS-RA cells): 119.08 ± 4.55
5 | CCN(CC)CCOCCOC(=O)[C@@H](C)c1ccc(C[C@H]2CCC[C@@H]2O)cc1 [DSC4802] | 27.26 ± 2.41 | –
6 | CCN(CC)CCN(CC)CCOC(=O)[C@@H](C)c1ccc(C[C@H]2CCC[C@@H]2O)cc1 [DSC4803] | 30.17 ± 1.85 | –
7 | CCN(CC)CCOC(=O)[C@@H](C)c1ccc(C[C@H]2CCC[C@@H]2OC(C)=O)cc1 [DSC4804] | 29.36 ± 2.33 | –
8 | CCN(CC)CCOCCOC(=O)[C@@H](C)c1ccc(C[C@H]2CCC[C@@H]2OC(C)=O)cc1 [DSC4805] | 29.28 ± 1.92 | –
9 | CCN(CC)CCOC(=O)[C@@H](C)c1ccc(C[C@H]2CCC[C@@H]2OC(=O)C(CS)N(C)C)cc1 (stereo partly drawn) [DSC4806] | 24.19 ± 2.24 | –
10 | CCN(CC)CCOCC(=O)O[C@H]1CCC[C@@H]1Cc1ccc([C@H](C)C(=O)O)cc1 [DSC4807] | 22.23 ± 3.04 | IL-6 (IL-6 in HFLS-RA cells): 48.01 ± 0.77; IL-8 (IL-8 in HFLS-RA cells): 121.66 ± 4.78
11 | CCN(CC)CCNCCOCC(=O)O[C@H]1CCC[C@@H]1Cc1ccc([C@H](C)C(=O)O)cc1 [DSC4808] | 23.11 ± 2.25 | –
12 | C[C@H](C(=O)O)c1ccc(C[C@H]2CCC[C@@H]2OC(=O)C(N)CS)cc1 (stereo partly drawn) [DSC4809] | 22.47 ± 1.99 | –
13 | C[C@H](C(=O)O)c1ccc(C[C@H]2CCC[C@@H]2OC(=O)C(CS)N(C)C)cc1 (stereo partly drawn) [DSC4810] | 24.95 ± 2.65 | IL-6 (IL-6 in HFLS-RA cells): 47.88 ± 0.72; IL-8 (IL-8 in HFLS-RA cells): 118.57 ± 3.92
14 | CCOC(=O)[C@@H](C)c1ccc(C[C@H]2CCC[C@@H]2OC(=O)COCCN(CC)CC)cc1 [DSC4811] | 22.37 ± 1.78 | –
15 | CCOC(=O)[C@@H](C)c1ccc(C[C@H]2CCC[C@@H]2OC(=O)C(CS)N(C)C)cc1 (stereo partly drawn) [DSC4812] | 23.81 ± 2.21 | –
16 | C[C@H](C(=O)OCCN1C(=O)CCC1=O)c1ccc(C[C@H]2CCC[C@@H]2O)cc1 [DSC4813] | 22.34 ± 2.72 | IL-6 (IL-6 in HFLS-RA cells): 46.82 ± 0.63; IL-8 (IL-8 in HFLS-RA cells): 119.48 ± 4.07; Distribution at joints [4]: significantly improved
17 | CC(=O)O[C@H]1CCC[C@@H]1Cc1ccc([C@H](C)C(=O)OCCN2C(=O)CCC2=O)cc1 [DSC4814] | 24.36 ± 1.99 | –
18 | CC[N+](CC)(CC)CCOC(=O)[C@@H](C)c1ccc(C[C@H]2CCC[C@@H]2O)cc1 [DSC4815] | 28.31 ± 2.26 | –
19 | CC[N+](CC)(CC)CCOC(=O)[C@@H](C)c1ccc(C[C@H]2CCC[C@@H]2O)cc1 [DSC4816] | 29.71 ± 2.83 | –
20 | CCOC(=O)[C@@H](C)c1ccc(C[C@H]2CCC[C@@H]2OC(=O)COCC[N+](CC)(CC)CC)cc1 [DSC4817] | 23.32 ± 2.46 | –
21 | CCOC(=O)[C@@H](C)c1ccc(C[C@H]2CCC[C@@H]2OC(=O)COCC[N+](CC)(CC)CC)cc1 [DSC4818] | 22.54 ± 2.14 | –
22 | CCOC(=O)[C@@H](C)c1ccc(C[C@H]2CCC[C@@H]2OC(=O)CN(CC)CC)cc1 [DSC4819] | 20.36 ± 2.10 | –
23 | CCOC(=O)[C@@H](C)c1ccc(C[C@H]2CCC[C@@H]2OC(=O)CCN(CC)CC)cc1 [DSC4820] | 21.11 ± 3.56 | –
24 | CCN(CC)CC(=O)O[C@H]1CCC[C@@H]1Cc1ccc([C@H](C)C(=O)O)cc1 [DSC4821] | 20.96 ± 1.85 | IL-6 (IL-6 in HFLS-RA cells): 46.58 ± 0.61; IL-8 (IL-8 in HFLS-RA cells): 117.72 ± 3.43; Distribution at joints [4]: significantly improved
25 | CCOC(=O)[C@@H](C)c1ccc(C[C@H]2CCC[C@@H]2OC(=O)OCCN(CC)CC)cc1 [DSC4825] | 22.53 ± 2.66 | –
26 | CCN(CC)CCOC(=O)O[C@H]1CCC[C@@H]1Cc1ccc([C@H](C)C(=O)O)cc1 [DSC4826] | 21.43 ± 1.94 | IL-6 (IL-6 in HFLS-RA cells): 47.59 ± 0.45; IL-8 (IL-8 in HFLS-RA cells): 117.77 ± 4.23
27 | CN(Cc1cnc2nc(N)nc(N)c2n1)c1ccc(C(=O)N[C@@H](CCC(=O)O)C(=O)O)cc1 [Negative control group, methotrexate, reference compound] | – | Cell proliferation rate (HFLS-RA cells; methotrexate 1 g/mL): 18.37 ± 1.32%
